{"source": "patent US9079854B2", "about": "(priority 2007, dated 2015)", "key": {"[1]": {"tested_on": "Paclitaxel-induced neuropathy", "test": "Prevention of paclitaxel-induced neuropathy", "assay_type": "in vivo, rat", "conditions": "15 mg/kg intraperitoneally 30 minutes prior to paclitaxel; rats", "procedure": "A mixture of saline and CREMOPHOR®ELP 10% was used as vehicle for paclitaxel. It was injected at a concentration of 1.0 mg/kg intraperitoneally to the chemotherapy-treated group of rats on 4 consecutive days for a final cumulative dose of 4 mg/kg to 18 rats.\nAssessment of neuropathic pain. Paw withdrawal thresholds were determined daily in both hind paws of each animal using calibrated von Frey monofilaments according to an up-down procedure. A series of von Frey filaments with exponentially incremental degrees of stiffness (0.4, 0.7, 1.2, 2.0, 3.6, 5.5, 8.5, and 15.1 g) was used to measure the 50% threshold for both hindpaw withdrawal in awake, unrestrained rats. Chaplan, S. R., Quantitative assessment of tactile allodynia in the rat paw, Journal of Neuroscience Methods, 1994, 53:55-63. […]\nGroup 1 of rats received paclitaxel for four days, as described immediately above in subpart (A) titled “Paclitaxel-induced Neuropathy.” In group 2, a dose of 15 mg/kg of the compound of Example 6, injected intraperitoneally was administered 30 minutes prior to the administration of paclitaxel. […] Paw withdrawal thresholds were determined daily in both hind paws of each animal using calibrated von Frey monofilaments according to an up-down procedure as described immediately above in subpart (A) titled “Paclitaxel-induced Neuropathy.” The results are shown in FIG. 14."}, "[2]": {"tested_on": "tactile allodynia in a spinal nerve ligation neuropathic pain model", "test": "Lumbar 5/6 spinal nerve ligation neuropathic pain model, mechanical paw withdrawal threshold (von Frey)", "assay_type": "in vivo, rat", "excerpt": "Neuropathic pain was induced following the methods of Kim and Chung. Kim S H, Chung J M. An experimental model for peripheral neuropathy produced by segmental spinal nerve ligation in the rat. Pain 1992; 50:355-63. Rats were anesthetized and placed prone under a microsurgical apparatus. A midline incision was made on the back, and the right paraspinal muscles were separated from the spinous processes at the L4-S2 levels. The L6 transverse process was carefully removed, and the L4/5 spinal nerves were identified. The L5 nerve was tightly ligated with a 6-0 silk suture. The right L6 spinal nerve was then located just caudal and medial to the sacroiliac junction and tightly ligated with a silk suture.\nTwo weeks later after spinal nerve ligation, Intrathecal catheters (PE-10 tubing) was inserted into the rats while they were anesthetized with isoflurane, as described by Yaksh and Rudy. Yaksh T L, Rudy T A. Chronic catheterization of the spinal subarachnoid space. Physiology & Behavior 1976; 17:1031-6. A midline incision was made on the back of the neck. The muscle was freed at the attachment to the skull exposing the cisternal membrane. The membrane was opened with a stab blade and an 8.5 cm polyethylene (PE-10) catheter was then inserted through the cisternal opening, and passed carefully and caudally into the intrathecal space at the L1-L3 spinal segments. The end of the catheter was tunneled through the subcutaneous space over the frontal bones, flushed with 10 μl saline, and then plugged with a short length of wire Animal testing was performed 5-7 days after intrathecal catheter placement.\nTo assess mechanical allodynia, the mechanical paw withdrawal threshold was measured with a series of von Frey hairs (range 0.4-15 g). Rats were placed in elevated Perspex enclosures (28 cm×15 cm×18 cm) with wire mesh bases and given 15-20 min to acclimatize to the testing environment. Rats will be allowed to acclimatize for 30 min in a clear plastic cage with a wire mesh bottom. The calibrated von Frey filament fibers were applied to the hindpaw briefly for 6 seconds to determine the paw withdrawal threshold before and after drug injection (intraperitoneally or intrathecally). A series of von Frey filaments with exponentially incremental stiffness (0.4, 0.7, 1.2, 2.0, 3.6, 5.5, 8.5 and 15 g) were used to measure the 50% threshold for hindpaw withdrawal in awake, unrestrained rats. Chaplan S R, Bach F W, Pogrel J W, Chung J M, Yaksh T L. Quantitative assessment of tactile allodynia in the rat paw. Journal of Neuroscience Methods 1994; 53:55-63. Brisk paw withdrawal from the pressure of a filament gently bent against the plantar paw was defined as a positive response, and absence of withdrawal within 6 s as a negative response. Filaments were touched to the hindpaw in sequential ascending or descending order until the threshold of response is crossed (allowing about 10 s between each increment of the von Frey filaments). Each time the threshold is crossed, the direction of stimulus presentation was reversed and the procedure will be resumed. Four responses were collected after the first threshold detection, and the 50% withdrawal thresholds were interpolated. In cases where response thresholds fell outside the range of detection, 15.00 and 0.25 g were, respectively, assigned for continuous negative or positive responses to the limit of stimuli.\nAll surgical procedures were performed under deep isoflurane anesthesia in 100% O2. The spinal nerve ligation (SNL) was performed as described previously. Kim, S. H., et al., An Experimental Model for Peripheral Neuropathy Produced by Segmental Spinal Nerve Ligation in the Rat, Pain, 1992, 50:355-63. Briefly, a midline incision above the lumbar spine exposed the left L6 transverse process. The process was then removed, the left L5 and L6 spinal nerves were isolated, and both nerves were tightly ligated with 6-0 silk. […]"}}, "data": [{"smiles": "CCCCCCN1C(=O)/C(=N\\NC(=O)c2ccccc2)c2ccccc21", "note": "[Example 6, Benzoic acid [1-n-hexyl-2-oxo-1,2-dihydro-indol-3-ylidene]-hydrazide]", "values": [{"measurement": "development of paclitaxel-induced peripheral neuropathy (paw withdrawal threshold)", "setting": "[1]", "result": "prevented the development of neuropathic pain induced by paclitaxel"}, {"measurement": "duration of peak threshold", "setting": "[2]; IP 30 mg/kg, rats", "result": "one"}, {"measurement": "peak paw withdrawal threshold", "setting": "[2]; IP 30 mg/kg, rats", "result": 15, "unit": "g"}, {"measurement": "time of peak effect following administration", "setting": "[2]; IP 30 mg/kg, rats", "result": "≤ 5", "unit": "min"}, {"measurement": "effect on mechanical paw withdrawal threshold", "setting": "[2]; IP administration of 30 mg/kg in 0.5 ml, rats", "result": "produced an increase in mechanical paw withdrawal threshold"}, {"measurement": "ED50", "setting": "[2]; Rattus norvegicus, ip, rats, spinal nerve ligation, 95% CI, read-out: ED50 of the anti-allodynic effect", "result": 5.9, "unit": "mg/kg"}, {"measurement": "ED90 of the anti-allodynic effect", "setting": "[2]; i.p., rats, spinal nerve ligation, 95% CI", "result": "12 (95% CI 9.6-15.5) mg/kg"}, {"measurement": "effect on paw withdrawal threshold", "setting": "[2]; intrathecal (IT) administration, at 5 min, rats", "result": "short-lived modest increase in paw withdrawal threshold"}, {"measurement": "behavioral abnormalities or side effects", "setting": "[2]; rats of the nerve-ligation study", "result": "No behavioral abnormalities or side effects were noted"}]}]}
